Like-named read-outs stand apart in the source and are kept apart here.
Assays:
[1] = target: T1, estrogen receptor (Sus scrofa, UniProt Q29040); assay: biochemical
T1 sequence (Q29040 1-595): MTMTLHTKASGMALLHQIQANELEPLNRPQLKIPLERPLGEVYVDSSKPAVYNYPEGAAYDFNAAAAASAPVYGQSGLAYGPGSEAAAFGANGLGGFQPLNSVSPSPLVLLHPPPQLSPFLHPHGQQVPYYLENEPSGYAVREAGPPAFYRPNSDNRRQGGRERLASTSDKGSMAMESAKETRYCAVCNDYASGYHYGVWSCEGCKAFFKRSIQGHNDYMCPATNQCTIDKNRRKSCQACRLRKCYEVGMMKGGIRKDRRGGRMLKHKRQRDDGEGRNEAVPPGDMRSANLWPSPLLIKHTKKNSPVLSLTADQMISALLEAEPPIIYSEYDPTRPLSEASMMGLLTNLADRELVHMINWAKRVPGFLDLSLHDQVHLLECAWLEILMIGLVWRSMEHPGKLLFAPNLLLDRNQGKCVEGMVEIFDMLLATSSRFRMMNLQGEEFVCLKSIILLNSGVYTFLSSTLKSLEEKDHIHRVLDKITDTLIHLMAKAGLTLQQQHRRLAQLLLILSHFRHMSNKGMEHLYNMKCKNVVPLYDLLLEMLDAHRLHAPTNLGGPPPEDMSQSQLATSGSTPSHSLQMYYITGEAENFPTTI
Protocol: (§1) A previously reported procedure was modified by the inventors and used for this purpose.^10,11 TEA buffer was used by the Inventors for tissue preparation.
(§2) Briefly, uteri (90 gm) were obtained from immature domestic swine (15 kg) was homogenized in Tris buffer (10 mM, pH 7.4) (1 uterus/180 ml), which contained EDTA (1.5 mM) and sodium Azide (3 mM). The homogenate was centrifuged at 100,000 g for 1 hour at 4° C. Uteri cytosol (contains 2% of protein from corresponding uterus tissue) were then pretreated with dextran-coated charcoal as described.^10 Protein concentrations were determined according to the method of Lowry et al.^12
(§3) *The relative binding affinity (RBA) for the pig uteri estrogen receptor

[2] = target: T1, estrogen receptor; settings: for Enhancement of estrogen receptor binding affinity: compared to tamoxifen; for RBA (IC50 ratio between tamoxifen and competitor): Table 7, tamoxifen printed as 1
Protocol: as §1, §2, §3

[3] = Acute/immediate toxicity following i.v. injection in BALB/c mice; settings: for MTD / Maximum dose tolerated: mouse, in vivo, iv; for Mice died: 20 mg/kg i.v.
Protocol: Acute toxicity studies were performed in BALB/c female mice with doses tested at 20, 50 and 200 mg/kg (i.v., n=5 mice per dose).

[4] = target: T2, estrogen receptor (Homo sapiens, UniProt P03372); settings: cited from earlier work; for Estrogen receptor binding / detection potency (in words): compared to tamoxifen
T2 sequence (P03372 1-595): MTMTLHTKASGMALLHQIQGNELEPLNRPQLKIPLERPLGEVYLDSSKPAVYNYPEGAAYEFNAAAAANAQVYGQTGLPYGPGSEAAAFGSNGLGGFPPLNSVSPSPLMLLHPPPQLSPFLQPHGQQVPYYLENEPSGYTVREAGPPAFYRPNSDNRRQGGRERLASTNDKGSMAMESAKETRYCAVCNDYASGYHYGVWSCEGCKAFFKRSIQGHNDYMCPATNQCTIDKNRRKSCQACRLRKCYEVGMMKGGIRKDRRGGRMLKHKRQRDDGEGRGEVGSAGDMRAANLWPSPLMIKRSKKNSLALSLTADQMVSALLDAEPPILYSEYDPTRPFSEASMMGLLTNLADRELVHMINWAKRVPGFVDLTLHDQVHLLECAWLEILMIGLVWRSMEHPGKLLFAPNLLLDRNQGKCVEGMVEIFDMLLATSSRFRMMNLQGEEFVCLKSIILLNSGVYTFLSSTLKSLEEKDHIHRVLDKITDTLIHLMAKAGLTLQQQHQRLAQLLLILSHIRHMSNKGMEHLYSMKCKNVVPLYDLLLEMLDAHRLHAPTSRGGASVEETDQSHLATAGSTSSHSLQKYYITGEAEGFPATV

[5] = compared to tamoxifen; cited from earlier work
[6] = system: MCF7 cells; assay: MCF7 breast tumor cell growth inhibition, 72 h, MTT tetrazolium dye assay; type: cell-based, human; settings: for Tumor cell inhibition (in words) / Potency against MCF7 compared with tamoxifen: 72 h; for RP (relative potency): tamoxifen = 100
Protocol: The MCF7 cell line is a human tumor cell line. This cell line was cultured in MEM (Eagles) media in a 5% CO^2 atmosphere with 10% fetal calf serum that had been washed twice with dextran coated charcoal to reduce endogenous estrogen levels. The media was supplemented with 1 mM sodium pyruvate and 100 μm non-essential amino acids. The cell line was screened routinely for myoplasma contamination using the GenProbe kit (Fisher). Cells were trypsinized and plated at a density of 5,000 cells/well in 96 well microtiter plates and allowed to attach and recover for 24 hours.
The media was removed by aspiration and replaced with filter sterilized drug (concentration from 10^-4 M to 10^-5 M) in media. The cells were incubated for 72 hours and then stained using the mTT tetrazolium dye assay of Mosmann^36 except that after the media was removed, the blue formazan product was solubilized in 50 μl/well DMSO.

[7] = In vivo tissue uptake in rat (% injected dose per organ, n=5)
[8] = in vivo; design: species or system rat; settings: compared with DTPA-Tamoxifen and DTPA-Vitamin A conjugates
Protocol: In animal tissue distribution studies, each rate was given 8.9 μCi (0.15 ml) tracer intravenously. The tumor-bearing rats were killed at 1, 3, 6 and 24 h. […] The amount of DES given should occupy tumor estrogen receptor sites. The methods for inducing tumors in rats was as described by those of skill in the art (radiology). […]
Female Fisher 344 rats (250-275 g) (Harlan, Inc., Indianapolis, Ind.) were inoculated with mammary tumor cells using the 13762 tumor cell line (s.c. 10^5 cells/rat). After 14 days, a tumor size of 1-2 cm was observed. For ^131 I-ITX studies, five groups of rats (N=3/group) were anesthetized with ketamine (10-15 mg/rat). The trans ^131 I-ITX was given to four of the five groups (8.9 μCi/rat, i.v.) and biodistribution was studied at 1, 3, 6 and 24 h intervals. In blocking studies, the fifth group of rats was given diethylstilbestrol (DES) (1.2 mg/rat) for 1 h, followed by 8.9 μCi of ^131 I-ITX; biodistribution was studied 6 h later. The tissues were collected at different time intervals. The tissues were weighted and counted for radioactivity. The percent of injected dose per gram of tissue weight was calculated. […]

For `CCN(CC)CCOc1ccc(/C(=C(/CCCN=[N+]=[N-])c2ccccc2)c2ccccc2)cc1` [TX-N3 (trans), Tamoxifen Azide], the IC50 [1] was 38 µM, the Ki [1] was 18.7 µM and the “RBA (relative binding affinity)” value [2] was 80.
For `CCN(CC)CCOc1ccc(/C(=C(/CCF)c2ccccc2)c2ccccc2)cc1` [IV (trans), N,N-diethyl-fluorotamoxifen], the “Enhancement of estrogen receptor binding affinity” value (from here on “Enhancement”) [2] was “two and a half times”.
`CCN(CC)CCOc1ccc(/C(=C(\CCCCl)c2ccccc2)c2ccccc2)cc1` [cis-CITX, chlorotamoxifen] gave an MTD [3] of 50 mg/kg.
Work on `CCN(CC)CCOc1ccc(/C(=C(/CCCCl)c2ccccc2)c2ccccc2)cc1` [(XII) ClM (trans), N,N-diethyl-chloromethyltamoxifen] yielded an IC50 ([2]; read-out: IC50 estrogen receptor binding, pig uterus, [3H]estradiol 5 nM) of 0.4 µM.
With `CCN(CC)CCOc1ccc(/C(=C(/CCCBr)c2ccccc2)c2ccccc2)cc1` [(XI) BrM (trans), N,N-diethyl-bromomethyltamoxifen] the “RBA (IC50 ratio between tamoxifen and competitor)” value [2] was 150 and the “Enhancement” value [2] was 50 fold.
For `CCN(CC)CCOc1ccc(/C(=C(/CCCN)c2ccccc2)c2ccccc2)cc1` [TX-NH2 (trans), Amino Tamoxifen], the IC50 [1] was 300 µM, the Ki [1] was 150 µM and the “RBA (relative binding affinity)” value ([2]; tamoxifen = 100) was 10.
`CCN(CC)CCOc1ccc(/C(=C(\CCCBr)c2ccccc2)c2ccccc2)cc1` [cis-BTX] gave an MTD [3] of 50 mg/kg.
In the case of `CC/C(=C(/c1ccccc1)c1ccc(OCCN2CC2)cc1)c1ccccc1` (single isomer, unassigned) [cis isomer of tamoxifen azizidine], the “Decrease in estrogen receptor binding affinity” value ([4]; versus trans isomer or native tamoxifen) is given as 50 fold.
In the case of `CC/C(=C(\c1ccc(C)cc1)c1ccc(OCCN(C)C)cc1)c1ccccc1` [Compound 4-methyl], the “Anti-estrogenic / in vivo activity (in words)” value [5] is listed as “lower anti-estrogenic activity than tamoxifen” and the “Estrogen receptor binding / detection potency (in words)” value [4] is listed as “approximately equal activity for estrogen receptor binding affinity”.
In the case of `CCN(CC)CCOc1ccc(/C(=C(\CCF)c2ccccc2)c2ccccc2)cc1` (single isomer, unassigned) [IV (Cis), N,N-diethyl-fluorotamoxifen], the “Tumor cell inhibition (in words)” value [6] is reported as “effective as inhibiting a breast tumor cell line”, the “Tumor cell inhibition (in words)” value ([6]; listed as cis N,N-diethyl-fluoro) is reported as “more potent than the trans isomers” and the “RBA (relative binding affinity)” value ([2]; tamoxifen = 100) is reported as 100.
With `CCN(CC)CCOc1ccc(/C(=C(/CCCI)c2ccccc2)c2ccccc2)cc1` [trans-ITX, iodotamoxifen] the Mice died [3] was 3/4, the Mice died ([3]; listed as trans ITX) was 3 out of 4 and the “Toxicity (in words)” value ([3]; i.v.) was “lethal effects of transITX were immediate”. For the same compound, the MTD [3] was 8 mg/kg.
In the case of `CC/C(=C(\c1ccc(OC)cc1)c1ccc(OCCN(C)C)cc1)c1ccccc1` [4-methoxy phenyl derivative], the “Anti-estrogenic / in vivo activity (in words)” value [5] is listed as “about the same as native tamoxifen”.
With `CCN(CC)CCOc1ccc(/C(=C(\CCCI)c2ccccc2)c2ccccc2)cc1` [X (cis), N,N-diethyl-iodomethyltamoxifen] the “Tumor cell inhibition (in words)” value [6] was “more potent than the trans isomers”, the “RBA (IC50 ratio between tamoxifen and competitor)” value [2] was 10 and the “Enhancement” value [2] was 10 fold. For the same compound, the “RBA (relative binding affinity)” value ([2]; tamoxifen = 100) was 1,000.
For `CCN(CC)CCOc1ccc(/C(=C(/CCC[131I])c2ccccc2)c2ccccc2)cc1` [^131 I-IMTX (trans)], the Uterus/muscle ratio ([7]; first value (3 h)) was 11.0, the Uterus/muscle ratio ([7]; second value (6 h)) was 7.6 and the Uterus/muscle ratio ([7]; third value (24 h)) was 3.6.
In the case of `CCN(CC)CCOc1ccc(C(=C(CCCF)c2ccccc2)c2ccccc2)cc1` [Compound VI, N,N-diethyl-fluoromethyltamoxifen], the “Tumor cell inhibition (in words)” value [6] is reported as “effective as inhibiting a breast tumor cell line”.
With Fluorotamoxifen [(VII) FTX (Cis)] the “RP (relative potency)” value [6] was 224.
With `CCN(CC)CCOc1ccc(/C(=C(\CCCF)c2ccccc2)c2ccccc2)cc1` [VI (Cis), N,N-diethyl-fluoromethyltamoxifen] the “Potency against MCF7 compared with tamoxifen” value [6] was 3 fold and the “Tumor cell inhibition (in words)” value [6] was “more potent than the trans isomers”.
In the case of `CCN(CC)CCOc1ccc(C(=C(CCCBr)c2ccccc2)c2ccccc2)cc1` [Compound XI, 1-[4-(2-Diethylaminoethoxy)phenyl]-1,2-diphenyl-5-bromo-1-entene], the “Potency against MCF7 compared with tamoxifen” value [6] is reported as about 25 fold, the “Estrogen receptor binding (in words)” value ([2]; listed as Bromomethyl tamoxifen) is reported as “binds to estrogen receptors with greater affinity than the other halogenated tamoxifen analogs tested” and the “Estrogen receptor binding (in words)” value ([2]; listed as bromomethyl-Tx) is reported as “bind to estrogen receptors greater than other halogenated tamoxifens tested”.
In the case of `NCCc1ccc(NC(=O)CN(CCN(CCN(CC(=O)O)CC(=O)O)CC(=O)O)CC(=O)O)cc1` [DTPA, DTPAp-(amino ethyl) anilide, reference compound], the “Blood clearance and tumor-to-tissue uptake ratios (in words)” value [8] is reported as “faster blood clearance and less tumor-to-tissue uptake ratios”.
In the case of `CC/C(=C(\c1ccc(O)cc1)c1ccc(OCCN(C)C)cc1)c1ccccc1` [4-hydroxytamoxifen], the “Anti-estrogenic / in vivo activity (in words)” value [5] is listed as “less effective than tamoxifen in vivo”.
For `CC/C(=C(\c1ccc(I)cc1)c1ccc(OCCN(C)C)cc1)c1ccccc1` [Compound 4-iodo], the “Estrogen receptor binding / detection potency (in words)” value [4] is given as “greater potency than tamoxifen”.
In the case of `CC/C(=C(\c1ccc(Cl)cc1)c1ccc(OCCN(C)C)cc1)c1ccccc1` [Compound 4-chloro], the “Anti-estrogenic / in vivo activity (in words)” value [5] is given as “lower anti-estrogenic activity than tamoxifen” and the “Estrogen receptor binding / detection potency (in words)” value [4] is given as “approximately equal activity for estrogen receptor binding affinity”.
For `CCN(CC)CCOc1ccc(C(=C(CCCI)c2ccccc2)c2ccccc2)cc1` [Compound X, N,N-diethyl-iodomethyltamoxifen], the “Tumor cell inhibition (in words)” value [6] was “effective as inhibiting a breast tumor cell line”.
For fluorotamoxifen [trans^18 F-FTX], the Maximum dose tolerated [3] was 200 mg/kg.
In the case of `CC/C(=C(\c1ccc(F)cc1)c1ccc(OCCN(C)C)cc1)c1ccccc1` [Compound 4-fluoro], the “Anti-estrogenic / in vivo activity (in words)” value [5] is listed as “lower anti-estrogenic activity than tamoxifen” and the “Estrogen receptor binding / detection potency (in words)” value [4] is listed as “approximately equal activity for estrogen receptor binding affinity”.
fluorotamoxifen [cis-^18 F-FTX] gave a Maximum dose tolerated [3] of 50 mg/kg.
With `CCN(CC)CCOc1ccc(/C(=C(/CCCO)c2ccccc2)c2ccccc2)cc1` [III (trans), N,N-diethyl-hydroxymethyltamoxifen] the “RP (relative potency)” value [6] was 50 and the “RBA (relative binding affinity)” value ([2]; tamoxifen = 100) was 400.
Compound `CCN(CC)CCOc1ccc(/C(=C(/CCCBr)c2ccccc2)c2ccccc2)cc1` [trans-BTX] has an MTD [3] of 50 mg/kg.
Compound `CCN(CC)CCOc1ccc(/C(=C(\CCCI)c2ccccc2)c2ccccc2)cc1` [cis-ITX, iodotamoxifen] has an MTD [3] of 50 mg/kg.
